Measured values reported in ChEMBL document CHEMBL1150896, “Arenarins A-C: new cytotoxic fungal metabolites from the sclerotia of aspergillus arenarius” (1998).
Values after ≈ are worked out from the molar mass of the structure shown.

What was measured:
Format in all cases: functional
Carpophilus [1] = assay: Reduction of feeding rate in adult Carpophilus hemipterus at 100 ppm dietary level relative to control; set-up: scale not given: the % may be the effect or the level left
Carpophilus [2] = assay: Reduction of feeding rate in Carpophilus hemipterus larvae at 100 ppm dietary level relative to control; set-up: scale not given: the % may be the effect or the level left
[3] = Cytotoxicity against human NCI60 cells

| Structure (SMILES) | Activity (Carpophilus [1]) [%] | Activity (Carpophilus [2]) [%] | GI50 [3] [µg/mL] |
| --- | --- | --- | --- |
| COc1c(-c2ccc(O)cc2)c(O)cc2c1oc1cc(O)c(OCC=C(C)C)cc12 [ARENARIN A] | 13 | 13 | 4.8 (≈ 11.8 µM) |
| C=C(C)C1Cc2c(ccc(O)c2OC/C=C(\C)CO)C2=C1C(=O)C(c1ccc(O)cc1)=C(OC)C2=O (stereo unspecified) [ARENARIN B] | 20 |  | 3.8 (≈ 7.78 µM) |
| C=C(C)C1Cc2c(ccc(OC)c2OC/C=C(\C)CO)C2=C1C(=O)C(c1ccc(O)cc1)=C(OC)C2=O (stereo unspecified) [ARENARIN C] | 13 |  |  |
